From the OPERA property sets (Mansouri et al. 2018)

Which melting point does the source give for `Cc1nnc(NS(=O)(=O)c2ccc(N)cc2)s1` here?
Its melting point is 208 °C.

For `CCc1ccc2c(c1)C(=O)c1ccccc1C2=O`, which melting point is on record?
The melting point was 110 °C.

And the ready biodegradability?
The ready biodegradability was “not readily biodegradable”.

What does the source list for `FCCl`?
boiling point: -9.1 °C; log10 vapour pressure (mmHg): 3.39; melting point: -133 °C

Which results are given for `CC(C)Oc1cccc(NC(=O)c2ccccc2C(F)(F)F)c1`?
log10 vapour pressure (mmHg): -7.31; melting point: 104 °C

Which melting point does the source give for `C=CC(=O)NCO` here?
The melting point was 74.5 °C.

For `CC(C)CCOC(=O)C(C)O` (stereo not given), which boiling point is on record?
The boiling point was 202 °C.

With `FC=C(F)F` as the compound, how does the boiling point read?
Its boiling point is -51 °C.

For `CC(=O)OCOc1ccccc1C(N)=O`, which melting point is on record?
The melting point was 92.5 °C.

Which boiling point does the source give for `Cc1cccc(C)c1I` here?
Its boiling point is 230 °C.

What about the melting point of the same compound?
Its melting point is 11.2 °C.

Which boiling point does the source give for `CC1CNCC(C)C1` (stereo not given) here?
Its boiling point is 144 °C.

For `C1=C(c2ccccc2)CCCC1`, which boiling point is on record?
The boiling point was 252 °C.

And the melting point?
Its melting point is -11 °C.

For `CCCCCNCCCCC`, which boiling point is on record?
Its boiling point is 202 °C.

And the log10 vapour pressure (mmHg)?
The log10 vapour pressure (mmHg) was -0.815.

What about the ready biodegradability of the same compound?
The ready biodegradability was “readily biodegradable”.

With `CC[N+]1(CC)CCC(OC(=O)C(O)(c2ccccc2)c2ccccc2)C1.[Br-]` (stereo not given) as the compound, how does the melting point read?
The melting point was 204 °C.

With `COc1ccc2c(c1)CCCN2` as the compound, how does the boiling point read?
The boiling point was 284 °C.

And the melting point?
Its melting point is 42.5 °C.

For `C=CC(=O)OCC(CC)(COC(=O)C=C)COC(=O)C=C`, which ready biodegradability is on record?
Its ready biodegradability is “not readily biodegradable”.

Which boiling point does the source give for `COC(=O)C=C(C)C` here?
The boiling point was 136 °C.

For `Brc1ccc(Oc2c(Br)cc(Br)cc2Br)c(Br)c1`, which logP is on record?
Its logP is 7.24.

For `CCC(=O)CC`, which boiling point is on record?
The boiling point was 102 °C.

What about the log10 Henry constant (atm·m³/mol) of the same compound?
Its log10 Henry constant (atm·m³/mol) is -4.3.

What about the log10 Koa of the same compound?
The log10 Koa was 3.2.

What about the log10 vapour pressure (mmHg) of the same compound?
Its log10 vapour pressure (mmHg) is 1.58.

And the melting point?
The melting point was -39 °C.

And the ready biodegradability?
Its ready biodegradability is “readily biodegradable”.

With `CN1CCOCC1` as the compound, how does the boiling point read?
Its boiling point is 116 °C.

With `C#C[C@H](O)CC` as the compound, how does the boiling point read?
The boiling point was 125 °C.

For `COc1ccc(O)c(C=O)c1`, which boiling point is on record?
Its boiling point is 248 °C.

What about the melting point of the same compound?
The melting point was 4 °C.

Which melting point does the source give for `CC(=O)N(C)C(=O)COC(=O)c1ccccc1` here?
Its melting point is 102 °C.

With `O=C(O)[C@@H](CO)c1ccccc1` as the compound, how does the melting point read?
Its melting point is 118 °C.

For `CC(C)OC(=O)C=CC(=O)OC(C)C`, which boiling point is on record?
The boiling point was 280 °C.

And the melting point?
Its melting point is 2.1 °C.

Which boiling point does the source give for `C=C1[C@H]2CC[C@@H]3[C@H]2C(C)(C)CCC[C@]13C` here?
The boiling point was 258 °C.

Which boiling point does the source give for `CCOc1cccc(Cl)c1` here?
The boiling point was 207 °C.

Which melting point does the source give for `COC(=O)C(C)N(C(=O)c1ccccc1)c1ccc(F)c(Cl)c1` (stereo not given) here?
Its melting point is 85 °C.

Which boiling point does the source give for `c1ccc2c(c1)CCNC2` here?
Its boiling point is 232 °C.

For `Cc1cn([C@H]2C[C@H](F)[C@@H](CO)O2)c(=O)[nH]c1=O`, which melting point is on record?
The melting point was 177 °C.

Which melting point does the source give for `CCOC(=O)NN` here?
Its melting point is 46 °C.

Which ready biodegradability does the source give for `CC(O)(P(=O)(O)O)P(=O)(O)O` here?
Its ready biodegradability is “readily biodegradable”.

For `Fc1ccc(Br)cc1Br`, which melting point is on record?
Its melting point is 69 °C.

With `CCCCCCC#CC(=O)O` as the compound, how does the melting point read?
Its melting point is -8 °C.

For `CCCN(CCC)C(C)=O`, which boiling point is on record?
The boiling point was 210 °C.

With `CN(C)Cc1c[nH]c2ccccc12` as the compound, how does the melting point read?
Its melting point is 138 °C.

Which results are given for `c1ccc(C2CCc3ccccc3O2)cc1` (stereo not given)?
boiling point: 332 °C; melting point: 46.3 °C

For `C/C=C(/C)C(C)C`, which boiling point is on record?
The boiling point was 89.9 °C.

And the melting point?
The melting point was -121 °C.

Which boiling point does the source give for `Cc1cc(C)c(C)cn1` here?
Its boiling point is 188 °C.

For `CC(=O)CCCCO`, which boiling point is on record?
Its boiling point is 227 °C.

With `CCOc1ccccc1Cl` as the compound, how does the boiling point read?
The boiling point was 210 °C.

What does the source list for `COP(=S)(OC)Oc1ccc(Sc2ccc(OP(=S)(OC)OC)cc2)cc1`?
log10 Koc (L/kg): 5; melting point: 30 °C

For `O=C(O)c1ccccc1OP(=O)(O)O`, which melting point is on record?
The melting point was 169 °C.

Which log10 vapour pressure (mmHg) does the source give for `Nc1ncnc2[nH]cnc12` here?
Its log10 vapour pressure (mmHg) is -10.4.

With `Oc1ccc2c(c1)CCC2` as the compound, how does the boiling point read?
The boiling point was 253 °C.

What about the log10 Koc (L/kg) of the same compound?
Its log10 Koc (L/kg) is 3.4.

What about the melting point of the same compound?
Its melting point is 58 °C.

What does the source list for `CCCCCCCCCCCCCCC(=O)O`?
boiling point: 339 °C; log10 vapour pressure (mmHg): -6.36; melting point: 52.3 °C

For `COc1ccc(C(Cl)=C(c2ccc(OC)cc2)c2ccc(OC)cc2)cc1`, which melting point is on record?
Its melting point is 115 °C.

For `CNC(N)=O`, which melting point is on record?
The melting point was 103 °C.

Which boiling point does the source give for `CCC(=O)OCCOC(=O)CC` here?
Its boiling point is 211 °C.

For `Brc1ccccc1Br`, which boiling point is on record?
Its boiling point is 225 °C.

And the melting point?
Its melting point is 7.1 °C.

Which melting point does the source give for `Clc1ccc(SSc2ccc(Cl)cc2)cc1` here?
Its melting point is 68 °C.

Which melting point does the source give for `C[C@]12CC[C@@H]3c4ccc(O)cc4CC[C@H]3[C@@H]1CCC2=O` here?
The melting point was 260 °C.

For `Cc1cc(CO)c(O)c(CO)c1`, which melting point is on record?
Its melting point is 129 °C.

For `N#CC#CC#N`, which melting point is on record?
Its melting point is 20.5 °C.

Which results are given for `CCc1ccsc1`?
boiling point: 136 °C; melting point: -89.1 °C

Which melting point does the source give for `CC[C@@H](CO)NC(=O)[C@@H]1C=C2c3cccc4c3c(cn4C)C[C@H]2N(C)C1` here?
The melting point was 195 °C.

With `O=C(O)c1cc(O)nc(O)n1` as the compound, how does the melting point read?
The melting point was 346 °C.

With `O=S(=O)(Cl)c1ccc(I)cc1` as the compound, how does the melting point read?
Its melting point is 85 °C.

For `O=C(CCc1ccc(O)cc1)c1c(O)cc(O)cc1O[C@@H]1O[C@H](CO)[C@@H](O)[C@H](O)[C@H]1O`, which melting point is on record?
Its melting point is 110 °C.

Which boiling point does the source give for `CCCNC(C)C` here?
Its boiling point is 96.9 °C.

For `CCCC(C)CCC`, which boiling point is on record?
The boiling point was 118 °C.

What about the log10 biodegradation half-life (days) of the same compound?
Its log10 biodegradation half-life (days) is 0.602.

What about the log10 vapour pressure (mmHg) of the same compound?
The log10 vapour pressure (mmHg) was 1.31.

What about the melting point of the same compound?
The melting point was -121 °C.

With `CC(N)CN` (stereo not given) as the compound, how does the boiling point read?
Its boiling point is 120 °C.

What about the log10 vapour pressure (mmHg) of the same compound?
Its log10 vapour pressure (mmHg) is 1.03.

With `CC(COc1ccccc1)NC(C)C(O)c1ccc(O)cc1` (stereo not given) as the compound, how does the melting point read?
Its melting point is 103 °C.

Which log10 Henry constant (atm·m³/mol) does the source give for `c1cc2ccc3ccc4ccc5cccc6c(c1)c2c3c4c56` here?
The log10 Henry constant (atm·m³/mol) was -6.48.

What about the log10 Koc (L/kg) of the same compound?
Its log10 Koc (L/kg) is 4.61.

What about the log10 biodegradation half-life (days) of the same compound?
The log10 biodegradation half-life (days) was 2.75.

And the log10 vapour pressure (mmHg)?
Its log10 vapour pressure (mmHg) is -10.

And the melting point?
Its melting point is 278 °C.

Which melting point does the source give for `O=C(O)CC(CC(=O)O)C(=O)O` here?
The melting point was 166 °C.

With `O=[N+]([O-])CCCl` as the compound, how does the boiling point read?
The boiling point was 174 °C.

Which results are given for `CCCC(C)O` (stereo not given)?
boiling point: 119 °C; log10 Henry constant (atm·m³/mol): -4.83; log10 vapour pressure (mmHg): 0.786; melting point: -73 °C; ready biodegradability: readily biodegradable

With `CCCCCCOC(=O)CCC` as the compound, how does the boiling point read?
Its boiling point is 208 °C.

And the melting point?
Its melting point is -78 °C.

With `CCOP(=S)(OCC)SCn1c(=O)oc2cc(Cl)ccc21` as the compound, how does the log10 Koc (L/kg) read?
Its log10 Koc (L/kg) is 2.63.

What about the melting point of the same compound?
The melting point was 47.8 °C.

With `Nc1ccc(C2(c3ccc(N)cc3)OC(=O)c3ccccc32)cc1` as the compound, how does the melting point read?
The melting point was 203 °C.

With `CN(C1CCCCC1)C1CCCCC1` as the compound, how does the boiling point read?
The boiling point was 265 °C.

With `CC(=O)Nc1nc(=O)c2ncn(COCCOC(C)=O)c2[nH]1` as the compound, how does the melting point read?
The melting point was 204 °C.
